In brackets after ≈: the same amount, converted by molar mass. Where two headings read alike, the source gives them in different places.
Experiments:
B. anthracis Sterne F32 = experiment: microbe, parasite or virus in culture; type: cell-based; conditions: Bacillus anthracis
Ab ATCC 19606 [1] = experiment: Development of resistance, 15-passage MIC assay; type: cell-based, Acinetobacter baumannii; conditions: Acinetobacter baumannii, ATCC19606, read-out: MIC before passaging
S. enterica ATCC 14028 = experiment: MIC determination; type: cell-based; conditions: Salmonella enterica, ATCC14028
[2] = tested on: S. epidermidis ATCC 12228; experiment: MIC determination; type: cell-based; conditions: Staphylococcus epidermidis, ATCC12228
P. aeruginosa ATCC 27853 = experiment: MIC determination; type: cell-based; conditions: Pseudomonas aeruginosa, ATCC27853
E. coli MC1061 = experiment: MIC determination; type: cell-based; conditions: Escherichia coli; Table 5; Mueller-Hinton medium; D = E. coli MC1061; read-out: MIC strain D
Ab ATCC 19606 (strain I) = experiment: MIC determination (double dilution, Mueller-Hinton broth); type: cell-based, Acinetobacter baumannii; conditions: Acinetobacter baumannii, ATCC19606
Method: All bacterial strains listed above were stored at −80° C. All strains were streaked on Mueller-Hinton (MH) plates and allowed to grow at 37° C. overnight. […] The resulting culture was diluted 1:1000 and added to the prepared serially doubly diluted compound solutions in 96-well plates. For M. smegmatis, a 1:100 dilution of the bacteria was done in MH. All MIC values were determined using 96-well plates with low evaporation seals at least in duplicate. For each row, one well was reserved for sterile control (which consisted of 200 μL of MH medium) and another well was reserved for growth control (which consisted of 100 μL of MH medium seeded with 100 μL of bacterial culture).
(§1) Minimum inhibitory concentrations (MIC) of all compounds from the series were measured in liquid cultures of different Ab strains by a double-dilution method in Mueller-Hinton broth. Initially, the activity of all 46 compounds against Ab ATCC 19606 (a control strain) and Ab ATCC BAA1605 (a multidrug-resistant strain) (Table 1; data shown for 27 representative compounds) was measured.

S. aureus ATCC 25923 = experiment: MIC determination; type: cell-based; conditions: Staphylococcus aureus, ATCC25923
[3] = tested on: Ab ATCC BAA1605 (strain J, multidrug-resistant); experiment: MIC determination; type: cell-based; conditions: Acinetobacter baumannii
Method: All bacterial strains listed above were stored at −80° C. All strains were streaked on Mueller-Hinton (MH) plates and allowed to grow at 37° C. overnight. Enough colonies were scraped from the plate and suspended in MH broth with vortexing to reach an attenuance at 600 nm (OD600) of ˜0.5. The resulting culture was diluted 1:1000 and added to the prepared serially doubly diluted compound solutions in 96-well plates. For M. smegmatis, a 1:100 dilution of the bacteria was done in MH. All MIC values were determined using 96-well plates with low evaporation seals at least in duplicate. For each row, one well was reserved for sterile control (which consisted of 200 μL of MH medium) and another well was reserved for growth control (which consisted of 100 μL of MH medium seeded with 100 μL of bacterial culture).
as §1

Ab ATCC 19606 [4] = experiment: Time-kill curves
E. coli ATCC BAA 2469 = experiment: MIC determination; type: cell-based; conditions: Escherichia coli, BAA2469; Table 3
Gram-negative bacteria = experiment: MIC determination, panel statement; type: cell-based; conditions: moderate activity
[5] = tested on: all 43 strains of A. baumannii (41 CDC strains and 2 ATCC strains); experiment: MIC value statistics for all A. baumannii strains; type: cell-based, Acinetobacter baumannii; conditions: of 43 A. baumannii strains
Procedure, shortened: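 Broth microdilution in MH broth against CDC AR Isolate Bank and ATCC strains. Inoculum from overnight MH plates (37 °C), suspended to OD600 ~0.5, then diluted 1:1000 into serial twofold compound dilutions. Sterile and growth controls included per row.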

K. pneumoniae ATCC 27736 = experiment: MIC determination; type: cell-based; conditions: Klebsiella pneumoniae, ATCC27736
E. cloacae ATCC 13047 = experiment: MIC determination; type: cell-based; conditions: Enterobacter cloacae, ATCC13047
[6] = tested on: K. pneumoniae ATCC BAA 1705; experiment: MIC determination; type: cell-based; conditions: Klebsiella pneumoniae, BAA1705; Table 3
Y. pestis CO92 = experiment: microbe, parasite or virus in culture; type: cell-based; conditions: Yersinia pestis, CO92, read-out: MIC Y. pestis CO92
M. smegmatis = experiment: MIC determination; type: cell-based, Mycobacterium smegmatis; conditions: Mycolicibacterium smegmatis; Table 4
[7] = STERNEF32, read-out: MIC strain A
[8] = Table 5, Mueller-Hinton medium, H = S. enterica ATCC 14028, read-out: MIC strain H
[9] = Table 5, Mueller-Hinton medium, C = S. epidermidis ATCC 12228, read-out: MIC strain C
[10] = Table 5, Mueller-Hinton medium, G = P. aeruginosa ATCC 27853, read-out: MIC strain G
[11] = Table 5, Mueller-Hinton medium, I = A. baumannii ATCC 19606, read-out: MIC strain I
[12] = Table 5, Mueller-Hinton medium, B = S. aureus ATCC 25923, read-out: MIC strain B
[13] = Table 5, Mueller-Hinton medium, J = A. baumannii BAA1605, read-out: MIC strain J
[14] = Table 3, read-out: MIC K. pneumoniae ATCC 27736
[15] = Table 5, Mueller-Hinton medium, F = K. pneumoniae ATCC 27736, read-out: MIC strain F
[16] = Table 5, Mueller-Hinton medium, E = E. cloacae ATCC 13047, read-out: MIC strain E
[17] = Table 3, read-out: MIC P. aeruginosa ATCC 27853
[18] = Table 1, control strain, read-out: MIC Ab ATCC 19606
[19] = Table 1, multidrug-resistant strain, read-out: MIC Ab ATCC BAA 1605
[20] = Table 3, positive control strain, read-out: MIC A. Baumannii ATCC BAA 1605

| Compound | MIC (B. anthracis Sterne F32; [7]) [µg/mL] | MIC (S. enterica ATCC 14028; [8]) [µg/mL] | MIC [2, 9] [µg/mL] | MIC (P. aeruginosa ATCC 27853; [10]) [µg/mL] | MIC (E. coli MC1061) [µg/mL] | MIC (Ab ATCC 19606 (strain I); [11]) [µg/mL] | MIC (S. aureus ATCC 25923; [12]) [µg/mL] | MIC [3, 13] [µg/mL] | MIC (E. coli ATCC BAA 2469) [µg/mL] | MIC (Gram-negative bacteria) [µg/mL] | number of compound/strain combinations with MIC value 0.25 μg/mL [5] | number of compound/strain combinations with MIC value 0.5 μg/mL [5] | number of compound/strain combinations with MIC value 1 μg/mL [5] | number of compound/strain combinations with MIC value 2 μg/mL [5] | number of compound/strain combinations with MIC value ≤0.125 μg/mL [5] | MIC (K. pneumoniae ATCC 27736; [14]) [µg/mL] | MIC (K. pneumoniae ATCC 27736; [15]) [µg/mL] | MIC (E. cloacae ATCC 13047; [16]) [µg/mL] | MIC (Ab ATCC 19606 (strain I); [18]) [µg/mL] | MIC [3, 19] [µg/mL] | also measured |
| --- | --- | --- | --- | --- | --- | --- | --- | --- | --- | --- | --- | --- | --- | --- | --- | --- | --- | --- | --- | --- | --- |
| O=C(O)c1cn(C2CC2)c2cc(N3CCNCC3)c(F)cc2c1=O [CIP, ciprofloxacin, reference compound] | 1 (≈ 3.02 µM) | ≤ 0.0625 | ≤ 0.0625 | 0.25 (≈ 0.754 µM) | ≤ 0.0625 | 1 (≈ 3.02 µM) | ≤ 0.0625 | 2 (≈ 6.04 µM) | – | – | – | – | – | – | – | – | – | – | – | – | MIC (Ab ATCC 19606 [1]): 2 µg/mL (≈ 6.04 µM); bacteriostatic or bactericidal (time-kill) (Ab ATCC 19606 [4]; 1×MIC and 4×MIC, up to 24 h): bactericidal; reduction of colony count (Ab ATCC 19606 [4]; time-kill): 4100 fold |
| O=C(NNc1cccc(Cl)c1)c1ccccn1 [Compound 2b] | > 64 | 16 (≈ 64.6 µM) | > 64 | > 64 | 4 (≈ 16.1 µM) | 2 (≈ 8.07 µM) | > 64 | 1 (≈ 4.04 µM) | 8 (≈ 32.3 µM) | 4 to 16 (≈ 16.1 to 64.6 µM) | 13 | 13 | 12 | 3 | 2 | 8 (≈ 32.3 µM) | 16 (≈ 64.6 µM) | 4 (≈ 16.1 µM) | 2 (≈ 8.07 µM) | < 0.5 | MIC [6]: 16 µg/mL (≈ 64.6 µM); MIC (P. aeruginosa ATCC 27853; [17]): > 128 µg/mL; MIC [3, 20]: ≤ 0.5 µg/mL |
| COc1cccc(NNC(=O)c2ccccn2)c1 [Compound 2c] | – | – | – | – | – | – | – | – | > 128 | – | 5 | 6 | 28 | 3 | 1 | > 128 | – | – | 0.5 (≈ 2.06 µM) | 1 (≈ 4.11 µM) | MIC [6]: > 128 µg/mL; MIC (P. aeruginosa ATCC 27853; [17]): > 128 µg/mL; MIC [3, 20]: 1 µg/mL (≈ 4.11 µM) |
| O=C(NNc1ccc(Cl)cc1)c1ccccn1 [Compound 2e] | > 64 | 64 (≈ 258 µM) | > 64 | > 64 | 16 (≈ 64.6 µM) | 0.25 (≈ 1.01 µM) | > 64 | 0.25 (≈ 1.01 µM) | – | – | 16 | 21 | 1 | – | 5 | – | 64 (≈ 258 µM) | 64 (≈ 258 µM) | 0.25 (≈ 1.01 µM) | 0.25 (≈ 1.01 µM) | MIC (B. anthracis Sterne F32; STERNEF32, read-out: MIC B. anthracis Sterne F32): > 16 µg/mL; MIC (Y. pestis CO92): 16 µg/mL (≈ 64.6 µM); MIC (E. cloacae ATCC 13047; Table 4, read-out: MIC E. cloacae ATCC 13047): > 16 µg/mL; MIC (M. smegmatis): 4 µg/mL (≈ 16.1 µM); MIC (S. enterica ATCC 14028; Table 4, read-out: MIC S. enterica ATCC 14028): > 16 µg/mL; MIC ([2]; Table 4, read-out: MIC S. epidermidis ATCC 12228): > 16 µg/mL; MIC (S. aureus ATCC 25923; Table 4, read-out: MIC S. Aureus ATCC 25923): > 16 µg/mL |
| O=C(NNc1ccc(Cl)cc1)c1cccc(F)n1 [Compound 5e] | > 64 | 16 (≈ 60.2 µM) | > 64 | > 64 | 16 (≈ 60.2 µM) | ≤ 0.125 | > 64 | ≤ 0.125 | – | 4 to 16 (≈ 15.1 to 60.2 µM) | 21 | 2 | – | – | 20 | – | 16 (≈ 60.2 µM) | 16 (≈ 60.2 µM) | 0.125 (≈ 0.47 µM) | 0.125 (≈ 0.47 µM) | – |
| O=C(NNc1ccc(Cl)cc1)c1ccccc1 [Compound 10e] | > 64 | 64 (≈ 259 µM) | 64 (≈ 259 µM) | > 64 | 16 (≈ 64.9 µM) | 0.25 (≈ 1.01 µM) | 64 (≈ 259 µM) | 0.5 (≈ 2.03 µM) | – | 4 to 16 (≈ 16.2 to 64.9 µM) | 23 | 6 | 1 | – | 13 | – | 16 (≈ 64.9 µM) | 16 (≈ 64.9 µM) | – | – | – |

From US20260041683A1, “Compounds with Anti-Acinetobacter Baumannii Activity” (University of Kentucky Research Foundation, priority 2022, published 2026)
